pIC50: −log10 of the molar value.
Experiments:
Estrogen receptor = target: T1, Estrogen receptor (Homo sapiens, UniProt P03372); experiment: Displacement of fluorescent estrogen ligand from recombinant human ERalpha expressed in insect cells incubated for 2 hrs by polarization
T1 sequence (P03372 whole entry): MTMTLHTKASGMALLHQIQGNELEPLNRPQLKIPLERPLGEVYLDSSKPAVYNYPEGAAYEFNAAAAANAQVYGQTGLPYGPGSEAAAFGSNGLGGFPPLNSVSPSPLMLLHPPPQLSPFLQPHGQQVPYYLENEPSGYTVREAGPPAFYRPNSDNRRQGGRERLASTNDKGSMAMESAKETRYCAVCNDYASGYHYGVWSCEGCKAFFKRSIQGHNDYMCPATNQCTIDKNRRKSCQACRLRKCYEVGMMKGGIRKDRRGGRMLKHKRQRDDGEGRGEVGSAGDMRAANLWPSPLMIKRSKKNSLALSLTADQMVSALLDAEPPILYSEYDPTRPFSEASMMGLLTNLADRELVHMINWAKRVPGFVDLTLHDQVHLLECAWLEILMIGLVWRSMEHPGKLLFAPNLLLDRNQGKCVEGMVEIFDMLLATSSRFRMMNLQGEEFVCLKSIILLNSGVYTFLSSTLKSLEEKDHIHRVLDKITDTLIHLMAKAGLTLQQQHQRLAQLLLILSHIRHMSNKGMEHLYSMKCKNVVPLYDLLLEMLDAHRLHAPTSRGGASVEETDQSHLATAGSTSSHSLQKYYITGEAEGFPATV

Ishikawa = experiment: cells; settings: Homo sapiens, 48 h
Description: Cytotoxicity in human Ishikawa cells assessed as inhibition of cell growth incubated for 48 hrs by MTT assay

MCF7 = experiment: cells; settings: Homo sapiens, MCF7, 48 h
Description: Cytotoxicity in human MCF7 cells assessed as inhibition of cell growth incubated for 48 hrs by MTT assay

[1] = target: Vascular endothelial growth factor receptor 2 (Homo sapiens) (UniProt P35968); experiment: Inhibition of His-tagged human VEGFR2 at 40 uM incubated for 1 hr by HTRF assay
Vascular endothelial growth factor receptor 2 (Homo sapiens), sequence (P35968 whole entry): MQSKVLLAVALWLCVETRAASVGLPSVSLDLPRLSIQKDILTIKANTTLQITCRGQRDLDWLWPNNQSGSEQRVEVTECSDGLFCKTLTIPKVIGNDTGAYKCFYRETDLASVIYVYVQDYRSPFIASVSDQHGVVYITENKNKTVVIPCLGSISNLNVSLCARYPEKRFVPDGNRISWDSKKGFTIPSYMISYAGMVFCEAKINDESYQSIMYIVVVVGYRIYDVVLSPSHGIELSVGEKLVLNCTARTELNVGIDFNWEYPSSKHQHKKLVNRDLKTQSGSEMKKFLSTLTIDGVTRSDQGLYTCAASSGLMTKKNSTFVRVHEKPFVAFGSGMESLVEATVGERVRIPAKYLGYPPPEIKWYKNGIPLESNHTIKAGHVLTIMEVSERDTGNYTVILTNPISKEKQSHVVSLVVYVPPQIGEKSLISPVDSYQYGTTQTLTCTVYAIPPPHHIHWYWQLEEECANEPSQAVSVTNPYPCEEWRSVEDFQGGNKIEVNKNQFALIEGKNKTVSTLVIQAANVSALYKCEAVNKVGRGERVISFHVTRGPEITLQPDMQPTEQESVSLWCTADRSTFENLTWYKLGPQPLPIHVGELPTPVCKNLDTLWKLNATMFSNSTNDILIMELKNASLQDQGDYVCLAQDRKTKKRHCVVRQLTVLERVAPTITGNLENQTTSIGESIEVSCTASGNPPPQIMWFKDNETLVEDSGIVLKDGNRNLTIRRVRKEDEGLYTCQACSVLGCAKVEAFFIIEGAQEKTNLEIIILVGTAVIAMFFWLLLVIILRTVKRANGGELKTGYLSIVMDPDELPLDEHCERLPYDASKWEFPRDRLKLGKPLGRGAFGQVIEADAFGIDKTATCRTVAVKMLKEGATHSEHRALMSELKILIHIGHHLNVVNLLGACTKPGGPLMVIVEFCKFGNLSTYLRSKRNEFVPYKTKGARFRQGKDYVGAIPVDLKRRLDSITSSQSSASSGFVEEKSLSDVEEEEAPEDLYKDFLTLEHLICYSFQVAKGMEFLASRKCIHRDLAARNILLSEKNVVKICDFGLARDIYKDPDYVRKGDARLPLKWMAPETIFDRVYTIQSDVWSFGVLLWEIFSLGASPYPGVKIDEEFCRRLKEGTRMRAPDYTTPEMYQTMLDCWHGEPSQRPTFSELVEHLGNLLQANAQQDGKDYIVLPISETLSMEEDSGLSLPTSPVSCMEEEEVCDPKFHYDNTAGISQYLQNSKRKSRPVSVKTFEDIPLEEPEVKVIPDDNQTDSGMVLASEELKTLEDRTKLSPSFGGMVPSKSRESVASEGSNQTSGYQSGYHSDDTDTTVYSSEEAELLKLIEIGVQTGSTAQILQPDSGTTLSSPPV

HUVEC = experiment: Antiangiogenic activity against HUVEC incubated for 48 hrs by MTT assay; type: functional, cell-based; settings: Homo sapiens

Compound	pIC50 (Estrogen receptor)	pIC50 (Ishikawa)	pIC50 (MCF7)	inhibition [1]	pIC50 (HUVEC)
CCN(CC)CCOc1ccc(Oc2c(-c3ccc(F)cc3)c(=O)oc3cc(O)ccc23)cc1	5.45	4.76	4.67	–	–
O=c1oc2ccccc2c(Nc2ccc(OCCN3CCCCC3)cc2)c1-c1ccc(F)cc1	5.11	4.99	4.95	41.8%	4.77
CCN(CC)CCOc1ccc(Nc2c(-c3ccc(F)cc3)c(=O)oc3ccccc23)cc1	< 5.00	4.61	4.58	–	–
O=c1oc2cc(O)ccc2c(Nc2ccc(OCCN3CCCC3)cc2)c1-c1ccc(F)cc1	5.34	4.67	4.86	–	–
COc1ccc2c(Nc3ccc(OCCN4CCCCC4)cc3)c(-c3ccc(F)cc3)c(=O)oc2c1	5.10	5.06	4.90	66%	5.04
CN(C)CCOc1ccc(Oc2c(-c3ccc(F)cc3)c(=O)oc3cc(O)ccc23)cc1	5.19	4.73	4.78	–	–
CCN(CC)CCOc1ccc(Nc2c(-c3ccc(F)cc3)c(=O)oc3cc(O)ccc23)cc1	5.36	4.76	4.76	–	–
CCN(CC)CCOc1ccc(Oc2c(-c3ccc(OC)cc3)c(=O)oc3cc(OC)ccc23)cc1	< 5.00	5.03	4.81	–	–
O=c1oc2cc(O)ccc2c(Nc2ccc(OCCN3CCCC3)cc2)c1-c1ccc(O)cc1	5.19	4.57	4.69	–	–
COc1ccc(-c2c(Nc3ccc(OCCN4CCCCC4)cc3)c3ccc(O)cc3oc2=O)cc1	5.18	4.84	4.94	59.3%	4.79
CCN(CC)CCOc1ccc(Oc2c(-c3ccc(O)cc3)c(=O)oc3cc(O)ccc23)cc1	< 5.00	< 4.30	< 4.30	–	–
CC/C(=C(\c1ccccc1)c1ccc(OCCN(C)C)cc1)c1ccccc1 [TAMOXIFEN]	–	4.69	4.84	–	–
COc1ccc(-c2c(Oc3ccc(OCCN(C)C)cc3)c3ccc(OC)cc3oc2=O)cc1	< 5.00	4.94	4.75	–	–
COc1ccc(-c2c(Oc3ccc(OCCN4CCCC4)cc3)c3ccc(OC)cc3oc2=O)cc1	< 5.00	5.07	4.84	–	–
O=c1oc2cc(O)ccc2c(Nc2ccc(OCCN3CCCCC3)cc2)c1-c1ccc(O)cc1	5.42	4.61	4.73	83.2%	4.51
O=c1oc2cc(O)ccc2c(Oc2ccc(OCCN3CCCC3)cc2)c1-c1ccc(O)cc1	5.16	4.61	4.62	–	–
CCN(CC)CCOc1ccc(Nc2c(-c3ccc(O)cc3)c(=O)oc3cc(O)ccc23)cc1	5.22	4.54	4.56	–	–

From ChEMBL document CHEMBL4130448, “Novel SERMs based on 3-aryl-4-aryloxy-2H-chromen-2-one skeleton - A possible way to dual ERα/VEGFR-2 ligands for treatment of breast cancer” (Eur J Med Chem, 2017)
